Assay results as given in publication PMC12892976, “Alkylation-based optimization of antifungal FPPS inhibitors yields a potent, broad-spectrum lipophilic zoledronate derivative” (mBio, 2025).

Tests used:
Aspergillus udagawae = assay: MIC broth microdilution (CLSI); format: cell-based; details: Aspergillus udagawae 8G81
Description: (§1) Antifungal susceptibility was determined by broth microdilution according to the CLSI guidelines described in M27-Ed4 ([16]).

[1] = system: Trichophyton rubrum biofilms; assay: biofilm XTT reduction assay (SIC80, SFICI); format: cell-based; details: for SICc / SFICI: Trichophyton rubrum
Description: (§2) Biofilms of Cryptococcus were seeded in DMEM, and all other species were seeded in RPMI-1640.

Mucor circinelloides = assay: MIC broth microdilution (CLSI); format: cell-based; details: Mucor circinelloides 80-14-240-5007
Description: as §1

Paraphyton cookei = assay: checkerboard drug interaction (FICI, MICc);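 further: simplified diagonal checkerboard screen pairing an antifungal with an FPPS inhibitor, FICI computed under the Loewe additivity model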
Description: (§3) Drug interactions between antifungals and FPPS inhibitors were investigated using a simplified checkerboard diagonal screening method ([45]). […] FICIs were determined according to the Loewe additivity model ([17]).

Aspergillus niger = assay: checkerboard drug interaction (FICI, MICc); format: cell-based;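 further: simplified diagonal checkerboard screen pairing antifungals with FPPS inhibitors, FICI calculated under the Loewe additivity model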
Description: as §3

[2] = system: Candida albicans biofilms; assay: biofilm XTT reduction assay (SIC80, SFICI); details: for SICc / SFICI: Candida albicans
Description: as §2

[3] = system: Cryptococcus neoformans biofilms; assay: biofilm XTT reduction assay (SIC80, SFICI); details: for SICc / SFICI: Cryptococcus neoformans
Description: as §2

Nannizzia gypsea = assay: MIC broth microdilution (CLSI); format: cell-based; details: Nannizzia gypsea R-131
Description: as §1

Trichophyton tonsurans = assay: checkerboard drug interaction (FICI, MICc); format: cell-based;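 further: simplified diagonal checkerboard screen combining antifungals with FPPS inhibitors, with FICI calculated under the Loewe additivity model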
Description: as §3

Fusarium solani = assay: checkerboard drug interaction (FICI, MICc); format: cell-based;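 further: simplified diagonal checkerboard screen pairing antifungals with FPPS inhibitors, FICI derived under the Loewe additivity model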
Description: as §3

[4] = system: Cryptococcus deneoformans; assay: MIC broth microdilution (CLSI); format: cell-based; details: Cryptococcus deneoformans JEC21
Description: as §1

Epidermophyton floccosum = assay: checkerboard drug interaction (FICI, MICc);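 further: simplified diagonal checkerboard screen pairing antifungals with FPPS inhibitors, FICI calculated under the Loewe additivity model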
Description: as §3

[5] = system: Saccharomyces cerevisiae biofilms; assay: biofilm XTT reduction assay (SIC80, SFICI); format: cell-based; details: for SICc / SFICI: Saccharomyces cerevisiae
Description: as §2

[6] = system: Cryptococcus deuterogattii biofilms; assay: biofilm XTT reduction assay (SIC80, SFICI); details: for SICc / SFICI: Cryptococcus deuterogattii
Description: as §2

Scedosporium apiospermum = assay: checkerboard drug interaction (FICI, MICc); format: cell-based;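 further: simplified diagonal checkerboard screen of antifungal plus FPPS inhibitor pairs, with FICI computed under the Loewe additivity model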
Description: as §3

CCCCCCCCCCn1cc[n+](CC(O)(P(=O)(O)O)P(=O)(O)O)c1 [10-ZOL, Decyl-zoledronate]
MIC / MEC (Aspergillus udagawae): 1 mg/L
FICI range (biofilm) ([1]; azoles with 10-ZOL, Trichophyton rubrum biofilms): 0.38–0.50
SICc ([1]; biofilm, FLC:10-ZOL combination): 16 µg/mL
SFICI ([1]; biofilm, FLC:10-ZOL): 0.38
SICc ([1]; biofilm, ITR:10-ZOL combination): 16 µg/mL
SFICI ([1]; biofilm, ITR:10-ZOL): 0.38
SICc ([1]; biofilm, KET:10-ZOL combination): 16 µg/mL
SFICI ([1]; biofilm, KET:10-ZOL): 0.50
SIC80 ([1]; biofilm, agent alone, Trichophyton rubrum 213): 64 µg/mL
MIC / MEC (Mucor circinelloides): 1 mg/L
FICI (Paraphyton cookei; 5FC:10-ZOL): ≥4
FICI (Paraphyton cookei; AMB:10-ZOL): 1.5
FICI (Paraphyton cookei; CAS:10-ZOL): 1.5
FICI (Paraphyton cookei; FLC:10-ZOL): 0.53
FICI (Paraphyton cookei; ITR:10-ZOL): 0.53
FICI (Paraphyton cookei; VOR:10-ZOL): 0.9
bisphosphonate MICc (Paraphyton cookei; with 5FC): 0.25
bisphosphonate MICc (Paraphyton cookei; with AMB): 0.25
bisphosphonate MICc (Paraphyton cookei; with CAS): 0.25
bisphosphonate MICc (Paraphyton cookei; with FLC): 0.25
bisphosphonate MICc (Paraphyton cookei; with ITR): 0.25
bisphosphonate MICc (Paraphyton cookei; with KET): 0.25
bisphosphonate MICc (Paraphyton cookei; with VOR): 0.125
FICI (Aspergillus niger; 5FC:10-ZOL): ≥4
FICI (Aspergillus niger; AMB:10-ZOL): 2.17
FICI (Aspergillus niger; CAS:10-ZOL): 1
bisphosphonate MICc (Aspergillus niger; with 5FC): 1
bisphosphonate MICc (Aspergillus niger; with AMB): 1
bisphosphonate MICc (Aspergillus niger; with CAS): 2
bisphosphonate MICc (Aspergillus niger; with FLC): 0.5
bisphosphonate MICc (Aspergillus niger; with ITR): 1
bisphosphonate MICc (Aspergillus niger; with KET): 2
bisphosphonate MICc (Aspergillus niger; with VOR): 0.5
SICc ([2]; FLC:10-ZOL combination): 32 µg/mL
SFICI ([2]; FLC:10-ZOL): 0.50
SICc ([2]; ITR:10-ZOL combination): 64 µg/mL
SFICI ([2]; ITR:10-ZOL): 1.00
SICc ([2]; KET:10-ZOL combination): 64 µg/mL
SFICI ([2]; KET:10-ZOL): 1.00
SIC80 ([2]; agent alone, Candida albicans SC5314): 128 µg/mL
SICc ([3]; FLC:10-ZOL combination): 32 µg/mL
SFICI ([3]; FLC:10-ZOL): 0.75
SICc ([3]; ITR:10-ZOL combination): 16 µg/mL
SFICI ([3]; ITR:10-ZOL): 0.63
SICc ([3]; KET:10-ZOL combination): 8 µg/mL
SFICI ([3]; KET:10-ZOL): 0.56
SIC80 ([3]; agent alone, Cryptococcus neoformans H99): 128 µg/mL
MIC / MEC (Nannizzia gypsea): 0.5 mg/L
FICI (Trichophyton tonsurans; 5FC:10-ZOL): 2
FICI (Trichophyton tonsurans; AMB:10-ZOL): 2.92
FICI (Trichophyton tonsurans; CAS:10-ZOL): ≥4
FICI (Trichophyton tonsurans; FLC:10-ZOL): 0.52
bisphosphonate MICc (Trichophyton tonsurans; with 5FC): 1
bisphosphonate MICc (Trichophyton tonsurans; with AMB): 1
bisphosphonate MICc (Trichophyton tonsurans; with CAS): 1
bisphosphonate MICc (Trichophyton tonsurans; with FLC): 0.5
bisphosphonate MICc (Trichophyton tonsurans; with ITR): 1
bisphosphonate MICc (Trichophyton tonsurans; with KET): 0.25
bisphosphonate MICc (Trichophyton tonsurans; with VOR): 0.5
FICI (Fusarium solani; 5FC:10-ZOL): ≥4
FICI (Fusarium solani; CAS:10-ZOL): 2
FICI (Fusarium solani; VOR:10-ZOL): 0.53
bisphosphonate MICc (Fusarium solani; with 5FC): 1
bisphosphonate MICc (Fusarium solani; with AMB): 0.25
bisphosphonate MICc (Fusarium solani; with CAS): 4
bisphosphonate MICc (Fusarium solani; with FLC): 0.5
bisphosphonate MICc (Fusarium solani; with ITR): 0.5
bisphosphonate MICc (Fusarium solani; with KET): 2
bisphosphonate MICc (Fusarium solani; with VOR): 0.125
MIC / MEC [4]: 1 mg/L
FICI (Epidermophyton floccosum; 5FC:10-ZOL): 1.5
FICI (Epidermophyton floccosum; AMB:10-ZOL): 2
bisphosphonate MICc (Epidermophyton floccosum; with 5FC): 0.5
bisphosphonate MICc (Epidermophyton floccosum; with AMB): 0.5
bisphosphonate MICc (Epidermophyton floccosum; with CAS): 0.25
bisphosphonate MICc (Epidermophyton floccosum; with FLC): 0.25
bisphosphonate MICc (Epidermophyton floccosum; with ITR): 0.125
bisphosphonate MICc (Epidermophyton floccosum; with KET): 1
bisphosphonate MICc (Epidermophyton floccosum; with VOR): 0.25
SICc ([5]; FLC:10-ZOL combination): 32 µg/mL
SFICI ([5]; FLC:10-ZOL): 0.75
SICc ([5]; ITR:10-ZOL combination): 32 µg/mL
SFICI ([5]; ITR:10-ZOL): 1.00
SICc ([5]; KET:10-ZOL combination): 8 µg/mL
SFICI ([5]; KET:10-ZOL): 0.63
SIC80 ([5]; agent alone, Saccharomyces cerevisiae S288c): 64 µg/mL
SICc ([6]; FLC:10-ZOL combination): 32 µg/mL
SFICI ([6]; FLC:10-ZOL): 1.00
SICc ([6]; ITR:10-ZOL combination): 32 µg/mL
SFICI ([6]; ITR:10-ZOL): 1.00
SICc ([6]; KET:10-ZOL combination): 16 µg/mL
SFICI ([6]; KET:10-ZOL): 0.38
SIC80 ([6]; agent alone, Cryptococcus deuterogattii R265): 64 µg/mL
FICI (Scedosporium apiospermum; 5FC:10-ZOL): 2.25
FICI (Scedosporium apiospermum; KET:10-ZOL): 0.53
FICI (Scedosporium apiospermum; VOR:10-ZOL): 0.53
bisphosphonate MICc (Scedosporium apiospermum; with 5FC): 1
bisphosphonate MICc (Scedosporium apiospermum; with AMB): 2
